{"source": "patent US20250222169A1", "about": "“PHOTOINTIATOR, BIOINK INCLUDING THE SAME, AND METHODE OF MANUFACTURING HYDROGEL” (PUSAN NATIONAL UNIVERSITY INDUSTRY-UNIVERSITY COOPERATION …, priority 2024, published 2025)", "key": {"[1]": {"details": "in water at about 25° C."}, "[2]": {"assay": "Molar extinction coefficient by UV-visible absorption spectra in distilled water", "type": "physicochemical", "details": "at about 405 nm, 10 mm quartz cuvettes", "from_the_text": "FIG. 5 is a graph of a molar extinction coefficient (ε)-wavelength of Examples according to the present disclosure."}, "[3]": {"system": "Murine NIH-3T3 fibroblasts", "assay": "Cytotoxicity of the photoinitiator (cell viability of fibroblasts)", "type": "cell-based", "details": "concentration of about 0.2% (w/v), about 24 hours", "procedure": "Murine NIH-3T3 fibroblasts purchased from ATCC (Manassas, VA, USA) were cultured in a cell culture dish in a size of about 100 mm along with DMEM supplemented with about 10% FBS and penicillin-streptomycin (about 100 UI/ml). The cultured cells were kept at about 37° C. in a sterile culture machine (Labogene, Seoul, Korea) containing about 5% CO2 until reaching the confluence.\nTo conduct cell viability analysis, fibroblasts were seeded into 24-well-plates (2×10^4 cells/well) and cultured in a sterile culture machine at about 37° C. for about 12 hours, and then the media were removed.\nIn particular, by substituting with highly biocompatible Mg^2+ ions, it was identified that there was a remarkable effect on reduction in the cytotoxicity."}}, "data": [{"smiles": "Cc1cc(C)c(C(=O)P(=O)([O-])c2ccccc2)c(C)c1.[Li+]", "note": "[LAP, Lithium phenyl-2,4,6-trimethylbenzoylphosphination]", "values": [{"measurement": "maximum solubility", "setting": "[1]", "result": "about 159.7 mM"}, {"measurement": "molar extinction coefficient", "setting": "[2]", "result": "about 29 M^−1·cm^−1"}, {"measurement": "cell viability", "setting": "[3]", "result": "about 46%"}]}]}
